Source: PubChem BioAssay AID602234 (The Scripps Research Institute Molecular Screening Center, 2012)
Active and inactive are the calls of the source. How the calls were made is not given here.

Assay: NCOA3 reporter inhibition potency – cell-based, luminescence, counter-screen for SRC1 inhibitor project, dose response (AID 602234);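 further: HEK293 cells co-transfected with pGL4.31 reporter and pBIND-SRC3 fusion vector; potency for inhibition of reporter luminescence with Gossypol as full inhibition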
Conditions: transfected HEK293 cells, counter-screen luciferase reporter
In the case of `COc1ccc2[nH]c(=O)c(CN(CCN3CCCC3)C(=O)Nc3ccccc3Cl)cc2c1`, the IC50 is reported as 8.7 µM.
`CN(CC(=O)Nc1ccc(Cl)c(C(F)(F)F)c1)C(=O)C1CC(=O)N(c2ccc3c(c2)OCCO3)C1` (stereo not given) gave an IC50 of 7.04 µM.
Compound `COc1ccc(Nc2ncnc3ccc(C)cc23)cc1` has an IC50 of 2.62 µM.
With `CCCCN(CCCC)c1ncnc2nc[nH]c12` the IC50 was 2.14 µM.
With `c1cnc2ccc(-n3ccnc3)cc2c1` the IC50 was 7.69 µM.
`Cc1ccc(NC(=O)NC2CC(=O)N(c3ccc4c(c3)OCCO4)C2)cc1C` (stereo not given) gave an IC50 of 1.08 µM.
For `Nc1ccn(C2OC(CO)C(O)C2O)c(=O)n1` (stereo not given), the IC50 was 6.77 µM.
With `Cc1ccc(O)c(C(=O)c2cnn(C(=O)COc3ccc(Cl)cc3)c2)c1` the IC50 was 7.96 µM.
With `Cc1ccc(NC(=O)C2CCN(c3ncnc4sc(C)c(C)c34)CC2)cc1S(=O)(=O)N(C)C` the IC50 was > 12 µM (inactive).
In the case of `Cc1ccc(N=c2c([N+](=O)[O-])nn(-c3ccc4c(c3)OCCO4)n2O)cc1F`, the IC50 is reported as 3.24 µM.
`C=CCNc1ncnc2ccc(Br)cc12` gave an IC50 of 2.3 µM.
`CC[C@@]1(O)C(=O)OCc2c1cc1n(c2=O)Cc2cc3c(NC(=O)CN)cccc3nc2-1` showed an IC50 of 1.05 µM.
In the case of `Cc1c(CC(=O)NCCCC(=O)O)c(=O)oc2cc3c(cc12)CCC(C)(C)O3`, the IC50 is reported as 3.86 µM.
In the case of `COc1ccc(-c2cc(=O)oc3c(C)c(O)c(CN(C)C)cc23)cc1`, the IC50 is reported as 12.1 µM (inactive).
For `COc1cccc(C2=CC(=O)CC(C)(C)C2)c1`, the IC50 was 6.27 µM.
For `CC(=O)NC(c1cc(Cl)c2cccnc2c1O)C(C)C` (stereo not given), the IC50 was 6.32 µM.
For `CCOc1cccc(/C=N/NC(=O)c2cc(C3CC3)[nH]n2)c1O`, the IC50 was 14.8 µM (inactive).
Work on `O=C(NC1CCCCC1)C(c1cccnc1)N(C(=O)CCl)c1cccc(Cl)c1` (stereo not given) yielded an IC50 of 0.503 µM.
In the case of `O=C(N/N=C/c1cc([N+](=O)[O-])ccc1O)c1cccc(N2CCCC2=O)c1`, the IC50 is reported as > 12 µM (inactive).
In the case of `CNc1ncnc(Sc2nc(N)nc3nc[nH]c23)c1[N+](=O)[O-]`, the IC50 is reported as 2.81 µM.
With `CCc1nc(N)nc(N)c1-c1ccc(Cl)c([N+](=O)[O-])c1` the IC50 was 0.95 µM.
For `C=CCc1ccccc1OCC(=O)N/N=C/c1ccc(OC(C)=O)cc1OC(C)=O`, the IC50 was 22.4 µM (inactive).
With `CN(C)C(=O)c1ccc(-c2n[nH]c(=O)c3ccccc23)cc1` the IC50 was 5.67 µM.
`CCn1ccnc1CN(C)Cc1cn[nH]c1-c1ccc(F)cc1F` showed an IC50 of 8.02 µM.
In the case of `O=C(Nc1nc(-c2ccccn2)cs1)c1cccc(S(=O)(=O)N2CCOCC2)c1`, the IC50 is reported as > 12 µM (inactive).
`Nc1ncccc1C(=O)OCC(=O)N1CCN(S(=O)(=O)c2ccc(Cl)cc2)CC1` showed an IC50 of 8.27 µM.
In the case of `COc1ccc(/C=C2\CC/C(=C\c3ccc(OC)c(OC)c3)C2=O)cc1OC`, the IC50 is reported as 5.96 µM.
In the case of `CCN1CCN(C(=S)c2ccc(-c3ccccc3)cc2)CC1`, the IC50 is reported as 4.62 µM.
With `c1ccc(-c2csc3ncnc(NCCN4CCOCC4)c23)cc1` the IC50 was 8.04 µM.
In the case of `Cc1cccn2c(=O)c3cc(C(=O)NCCN4CCOCC4)c(=N)n(Cc4cccnc4)c3nc12`, the IC50 is reported as 12.7 µM (inactive).
For `COc1ccc(-n2cnc3c(sc4nccc(N(C)C)c43)c2=O)cc1`, the IC50 was 11 µM (inactive).
`Cc1cccc(C)c1-c1ccc(CN2C(CC(C)C)C(=O)N(Cc3cn(CC4CCCCC4)nn3)CCS2(=O)=O)cc1` (stereo not given) gave an IC50 of 8.2 µM.
`COc1cc2c(cc1OC)C(NC(=O)C(F)(F)F)CNC2=O` (stereo not given) showed an IC50 of 2.62 µM.
`O=C(N/N=C/c1ccc(O)cc1O)/C(=C/c1ccccc1)CCO` showed an IC50 of 5.37 µM.
For `Cc1nc2c(-c3ccc(F)cc3)cnn2c(N)c1-c1ccccc1`, the IC50 was 11.4 µM (inactive).
Compound `Cc1ccc2occ(/C=N/NC(=O)[C@@H](N)Cc3ccccc3)c(=O)c2c1` has an IC50 of 6.9 µM.
Compound `COc1ccc(Cc2nnc(SCc3ccc([N+](=O)[O-])cc3)o2)cc1` has an IC50 of 5.53 µM.
With `N#Cc1c2ccc(O)cc2n2ccccc12` the IC50 was 1.38 µM.
With `COc1ccc(-c2cnc(N)nc2-c2ccc(OC)cc2O)cc1` the IC50 was 7.07 µM.
With `CCCCC(=O)Nc1cccn2ncnc12` the IC50 was 10.9 µM (inactive).
With `Fc1cccc(CSc2nnc3ccc(-c4ccncc4)nn23)c1` the IC50 was > 35.8 µM (inactive).
With `CCOc1cccc(/C=N/NC(=O)c2cccnc2)c1O` the IC50 was 9.67 µM.
`Cc1cc(/C=C2\Cc3ccccc3C2=O)c(C)n1-c1ccccc1` gave an IC50 of 8.76 µM.
`c1ccc(-c2nnc(-c3ccccn3)nc2NC2CCCCC2)cc1` showed an IC50 of 2.89 µM.
In the case of `COc1cccc(NC(=O)CN(C)CC(=O)Nc2ccc(Cl)cc2[N+](=O)[O-])c1`, the IC50 is reported as 17.8 µM (inactive).
In the case of `COc1ccccc1-c1cc2nc(-c3ccccc3)cc(N3CCN(C(=O)c4ccco4)CC3)n2n1`, the IC50 is reported as 5.66 µM.
With `CC(C)n1c(-c2cccnc2)nc2cnccc21` the IC50 was 5.26 µM.
`c1nc2sc3c(c2c2nnnn12)CCCC3` gave an IC50 of 9.84 µM.
For `O=[N+]([O-])c1ccc(N(CCO)CCO)c2c1no[n+]2[O-]`, the IC50 was 6.44 µM.
For `Cc1noc(/C=C/c2ccco2)c1S(=O)(=O)N1CCC(C(=O)Nc2ccc(Cl)cn2)CC1`, the IC50 was 11.3 µM (inactive).
For `O=C(O)c1ccccc1-c1c2cc(I)c(=O)c(I)c-2oc2c(I)c(O)c(I)cc12`, the IC50 was > 35.9 µM (inactive).
For `COc1ccc2c(C#N)c3ccccn3c2c1`, the IC50 was 11.2 µM (inactive).
In the case of `COc1ccc(Nc2ncnc3ccc(Br)cc23)c(OC)c1`, the IC50 is reported as 2.75 µM.
`Cn1nc(C(F)(F)F)c(C#N)c1N1CCN(c2ccc(F)cc2)CC1` showed an IC50 of 2.13 µM.
Work on `Cc1cc(C)nc(SCc2ccc(C(=O)N/N=C/c3cccc(O)c3O)cc2)n1` yielded an IC50 of 4.72 µM.
